SMILES strings stand for the structures. Square brackets hold non-standard residues; d marks the D form. Peptide text beside a SMILES is read from it. * marks the point of attachment. DOTA(Ga) = O=C1CN2CCN3CCN(CC(=O)*)CCN(CC2)CC(=O)[O][Ga]([O]1)[O]C(=O)C3; DOTAGA = O=C(O)CN1CCN(CC(=O)O)CCN(C(CCC(=O)*)C(=O)O)CCN(CC(=O)O)CC1; DOTA = O=C(O)CN1CCN(CC(=O)O)CCN(CC(=O)*)CCN(CC(=O)O)CC1; X6 = CN1CC(=O)C2(C1)OC([C@@H]1CCCN1*)OC2=O; boroPro = OB(O)[C@@H]1CCCN1*

One may read the IC50 as the point on the concentration scale where inhibition reaches its midpoint.

recombinant human fibroblast activation protein (FAP), sequence (Q12884 whole entry): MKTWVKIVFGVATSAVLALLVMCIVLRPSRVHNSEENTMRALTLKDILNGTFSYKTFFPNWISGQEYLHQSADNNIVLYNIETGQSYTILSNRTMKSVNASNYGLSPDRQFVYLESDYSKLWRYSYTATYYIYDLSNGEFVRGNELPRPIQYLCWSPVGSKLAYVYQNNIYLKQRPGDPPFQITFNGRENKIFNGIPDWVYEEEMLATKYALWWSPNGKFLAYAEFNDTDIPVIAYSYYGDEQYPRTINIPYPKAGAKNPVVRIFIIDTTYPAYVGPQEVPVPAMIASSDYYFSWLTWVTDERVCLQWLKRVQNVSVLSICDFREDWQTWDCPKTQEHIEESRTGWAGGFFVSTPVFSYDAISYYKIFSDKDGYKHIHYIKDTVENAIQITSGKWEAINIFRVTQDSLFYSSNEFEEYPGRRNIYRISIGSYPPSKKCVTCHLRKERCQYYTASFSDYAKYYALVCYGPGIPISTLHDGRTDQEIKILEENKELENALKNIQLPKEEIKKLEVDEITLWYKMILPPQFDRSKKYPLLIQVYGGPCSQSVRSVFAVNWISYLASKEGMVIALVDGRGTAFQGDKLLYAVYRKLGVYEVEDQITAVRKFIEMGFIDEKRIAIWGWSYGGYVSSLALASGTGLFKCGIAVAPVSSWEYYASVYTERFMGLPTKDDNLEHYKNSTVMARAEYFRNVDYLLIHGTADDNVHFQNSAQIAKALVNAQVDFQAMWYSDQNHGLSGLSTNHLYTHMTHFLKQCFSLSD

The first assay addresses recombinant human fibroblast activation protein (FAP) (Homo sapiens (Human), UniProt Q12884). As to the kind of experiment: In vitro assay fibroblast activation protein IC50 (Example 21).
Details: not given
In kind it is biochemical. The procedure:
The purpose of this assay is to determine the IC50 of various inhibitors against recombinant human dipeptidyl peptidase IV (DPPIV), fibroblast activation protein (FAP) or prolyl oligopeptidase (PREP).
The assays are conducted in the following steps: • 1 Dissolve the compound in DMSO to a final concentration of 100 mM. From this, prepare a 1 mM stock at pH 7.5 in 50 mM Tris, 140 mM NaCl Buffer (FAP)/pH 7.5 in 25 mM Tris, 250 mM NaCl Buffer/[…]. • 2. Serial dilute (1:10) the 1 mM compound stocks prepared previously into the appropriate assay buffer (FAP: 50 mM Tris, 140 mM NaCl, pH 7.5/PREP: 25 mM Tris, 0.25 M NaCl, pH 7.5/DPPIV: 25 mM Tris, pH 8.0) to one row of a 96-well plate. • 3. […] Dilute the enzymes into their appropriate assay buffers. The final enzyme concentrations should be 0.1, 1.2, and 0.6 nM for DPPIV, FAP and PREP respectively. Add 180 μL to each well needed in columns 2-10. Column 1(A,B,C) should be prepared with 200 μl of appropriate assay buffer as control. Column 1(D,E,F,G,H) should be prepared with 20 μl of appropriate assay buffer and 180 ul enzyme as no inhibitor control. • 5. Add 20 μL of the compound of interest from the dilution plate prepared in step 2 to columns 2-10 of the assay plate where appropriate. Each sample should be tested in triplicate. Allow this to incubate for 10 minutes at room temperature, shaking the plate for the first two minutes. • 6. Add 10 μL of 20× substrate prepared in step 3 to each well and allow this to incubate for 15 minutes at room temperature, shaking the plate for the first two minutes. • 7. Read the fluorescence at λex: 380, λem: 460. (DPcore=[dAla|dSer|Gly]-[boroPro|Pro-nitrile], XXaa=alpha-amino acid)
For the compound `C[C@@H](NC(=O)c1ccc(NNC(=O)CNC(=O)CN2CCN3CCN(CC(=O)O)CCN(CC2)CC(=O)[O][Cu][O]C(=O)C3)cc1)C(=O)N1CCC[C@H]1B(O)O` [6487CU], the IC50 came to 8.8 nM. In the case of `CC(C)[C@H](NC(=O)c1ccc(CNC(=O)CN2CCN3CCN4CCN(CC2)CC(=O)[O][Ga]([O]C(=O)C3)[O]C(=O)C4)cc1)C(=O)N[C@H](C)C(=O)N1CCC[C@H]1B(O)O` [6967 GA], the IC50 was 65 nM. In the case of `C[C@@H](NC(=O)c1ccc(NC(=O)CCNC(=O)CN2CCN3CCN4CCN(CC2)CC(=O)[O][Lu]([O]C(=O)C3)[O]C(=O)C4)cc1)C(=O)N1CCC[C@H]1B(O)O` [6590LU], the IC50 was determined as 0.4 nM. For the compound `C[C@@H](NC(=O)c1ccc(NNC(=O)CCCCCNC(=O)CN2CCN(CC(=O)O)CCN(CC(=O)O)CCN(CC(=O)O)CC2)nc1)C(=O)N1CCC[C@H]1B(O)O` [compound 6958], the IC50 was found to be 3.2 nM. Consider `C[C@@H](NC(=O)c1ccc(NC(=O)CCCCNC(=O)CN2CCN3CCN4CCN(CC2)CC(=O)[O][Ga]([O]C(=O)C3)[O]C(=O)C4)cc1)C(=O)N1CCC[C@H]1B(O)O` [6590 GA], for which the IC50 was 15 nM.

Turning to `C[C@@H](NC(=O)c1ccc(NNC(=O)CCCNC(=O)CN2CCN3CCN4CCN(CC2)CC(=O)[O][Gd]([O]C(=O)C3)[O]C(=O)C4)nc1)C(=O)N1CCC[C@H]1B(O)O` [6489 GD], the IC50 was determined as 1.1 nM. Still for that read-out and setting: the result for `C[C@@H](NC(=O)c1ccc(NNC(=O)CN2CCN3CCN4CCN(CC2)CC(=O)[O][Ga]([O]C(=O)C3)[O]C(=O)C4)nc1)C(=O)N1CCC[C@H]1B(O)O` [5183GA] reads 46.1 nM.

Staying with this assay, now noted: Z-Gly-Pro-AMC; 1.2 nM enzyme.
As for `CC(C)[C@H](NC(=O)CCCNC(=O)CN1CCN2CCN3CCN(CC1)CC(=O)[O][Ga]([O]C(=O)C2)[O]C(=O)C3)C(=O)N[C@H](C)C(=O)N1CCC[C@H]1B(O)O` [6614GA, DOTA(Ga)-GABA-Val-D-ala-boroPro], the half-inhibitory concentration (IC50) was 218 nM. In the case of `CC(C)[C@H](NC(=O)CCCCNC(=O)CN1CCN(CC(=O)O)CCN(CC(=O)O)CCN(CC(=O)O)CC1)C(=O)N[C@H](C)C(=O)N1CCC[C@H]1B(O)O` [compound 6940, DOTA-PEN-Val-D-alaboroPro], the half-inhibitory concentration (IC50) worked out at 5.2 nM. For `CC(C)[C@H](NC(=O)CCNC(=O)CN1CCN(CC(=O)O)CCN(CC(=O)O)CCN(CC(=O)O)CC1)C(=O)N[C@H](C)C(=O)N1CCC[C@H]1B(O)O` [compound 6615, DOTA-betaala-Val-D-ala-boroPro], the half-maximal inhibitory concentration (IC50) came out at 121 nM.

Turning to `CC(C)[C@H](NC(=O)CNC(=O)CNC(=O)CNC(=O)CNC(=O)CN1CCN2CCN3CCN(CC1)CC(=O)[O][Ga]([O]C(=O)C2)[O]C(=O)C3)C(=O)N[C@H](C)C(=O)N1CCC[C@H]1B(O)O` [6839GA] ({DOTA(Ga)}-GGGGV[dA]-boroPro), the concentration for half-maximal inhibition (IC50) amounted to 258 nM. As to `CC(C)[C@H](NC(=O)CCCCNC(=O)CN1CCN2CCN3CCN(CC1)CC(=O)[O][Ga]([O]C(=O)C2)[O]C(=O)C3)C(=O)N[C@H](C)C(=O)N1CCC[C@H]1B(O)O` [6940GA, DOTA(Ga)-PEN-Val-Dala-boroPro], the IC50 stood at 110 nM. `CC(C)[C@H](NC(=O)CNC(=O)CNC(=O)CNC(=O)CNC(=O)CNC(=O)CNC(=O)CN1CCN(CC(=O)O)CCN(CC(=O)O)CCN(CC(=O)O)CC1)C(=O)N[C@H](C)C(=O)N1CCC[C@H]1B(O)O` [compound 6850] ({DOTA}-GGGGGGV[dA]-boroPro): the IC50 worked out at 21 nM. For `CC(C)[C@H](NC(=O)CNC(=O)CNC(=O)CN1CCN(CC(=O)O)CCN(CC(=O)O)CCN(CC(=O)O)CC1)C(=O)N[C@H](C)C(=O)N1CCC[C@H]1C1OC(=O)C2(CN(C)CC2=O)O1` (stereo partly drawn) [6522M] ({DOTA}-GGV[dA]-X6), the IC50 was 280 nM. Turning to `CC(C)[C@H](NC(=O)CNC(=O)CNC(=O)CNC(=O)CNC(=O)CNC(=O)CNC(=O)CCC(C(=O)O)N1CCN(CC(=O)O)CCN(CC(=O)O)CCN(CC(=O)O)CC1)C(=O)N[C@H](C)C(=O)N1CCC[C@H]1B(O)O` (stereo partly drawn) [compound 6870] ({DOTAGA}-GGGGGGV[dA]-boroPro), the concentration for half-maximal inhibition (IC50) amounted to 9.2 nM.

Consider `CC(C)[C@H](NC(=O)CNC(=O)CNC(=O)CNC(=O)CNC(=O)CNC(=O)CN1CCN2CCN3CCN(CC1)CC(=O)[O][Ga]([O]C(=O)C2)[O]C(=O)C3)C(=O)N[C@H](C)C(=O)N1CCC[C@H]1B(O)O` [6848GA] ({DOTA(Ga)}-GGGGGV[dA]-boroPro), for which the IC50 worked out at 180 nM. For the compound `CC(C)[C@H](NC(=O)CNC(=O)CNC(=O)CNC(=O)CCC(C(=O)O)N1CCN(CC(=O)O)CCN(CC(=O)O)CCN(CC(=O)O)CC1)C(=O)N[C@H](C)C(=O)N1CCC[C@H]1B(O)O` (stereo partly drawn) [compound 6808] ({DOTAGA}-GGGV[dA]-boroPro), the IC50 was found to be 11.5 nM.

For `CC(C)[C@H](NC(=O)CNC(=O)CNC(=O)CNC(=O)CNC(=O)CCC(C(=O)O)N1CCN(CC(=O)O)CCN(CC(=O)O)CCN(CC(=O)O)CC1)C(=O)N[C@H](C)C(=O)N1CCC[C@H]1B(O)O` (stereo partly drawn) [compound 6868] ({DOTAGA}-GGGGV[dA]-boroPro), the IC50 was found to be 21 nM. Turning to `CC(C)[C@H](NC(=O)[C@@H](C)NC(=O)CNC(=O)CNC(=O)CNC(=O)CN1CCN(CC(=O)O)CCN(CC(=O)O)CCN(CC(=O)O)CC1)C(=O)N[C@H](C)C(=O)N1CCC[C@H]1B(O)O` [compound 6839] ({DOTA}-GGG[dA]V[dA]-boroPro), the IC50 turned out to be 21 nM.

On to `CC(C)[C@H](NC(=O)CNC(=O)CNC(=O)CNC(=O)CNC(=O)CNC(=O)CN1CCN(CC(=O)O)CCN(CC(=O)O)CCN(CC(=O)O)CC1)C(=O)N[C@H](C)C(=O)N1CCC[C@H]1B(O)O` [compound 6848] ({DOTA}-GGGGGV[dA]-boroPro), for which the IC50 was 14.8 nM. Same read-out and setting: the result for `CC(C)[C@H](NC(=O)CCCCCCNC(=O)CN1CCN2CCN3CCN(CC1)CC(=O)[O][Ga]([O]C(=O)C2)[O]C(=O)C3)C(=O)N[C@H](C)C(=O)N1CCC[C@H]1B(O)O` [6949GA] reads 181 nM; that for `CC(C)[C@H](NC(=O)CNC(=O)CNC(=O)CNC(=O)CN1CCN2CCN3CCN(CC1)CC(=O)[O][Ga]([O]C(=O)C2)[O]C(=O)C3)C(=O)N[C@H](C)C(=O)N1CCC[C@H]1B(O)O` [6834GA] ({DOTA(Ga)}-GGGV[dA]-boroPro), 439 nM; that for `CC(C)[C@H](NC(=O)CNC(=O)CNC(=O)CNC(=O)CNC(=O)CNC(=O)CCC(C(=O)O)N1CCN(CC(=O)O)CCN(CC(=O)O)CCN(CC(=O)O)CC1)C(=O)N[C@H](C)C(=O)N1CCC[C@H]1B(O)O` (stereo partly drawn) [compound 6869] ({DOTAGA}-GGGGGV[dA]-boroPro), 1.1 nM. For `CC(C)[C@H](NC(=O)CCCCCNC(=O)CN1CCN2CCN3CCN(CC1)CC(=O)[O][Ga]([O]C(=O)C2)[O]C(=O)C3)C(=O)N[C@H](C)C(=O)N1CCC[C@H]1B(O)O` [6948GA, DOTA(Ga)-HEX-Val-Dala-boroPro], the IC50 was found to be 144 nM. Still for that read-out and setting: the result for `CC(C)[C@H](NC(=O)CCCCNC(=O)CN1CCN2CCN3CCN(CC1)CC(=O)[O][Lu]([O]C(=O)C2)[O]C(=O)C3)C(=O)N[C@H](C)C(=O)N1CCC[C@H]1B(O)O` [6940LU, DOTA(Lu)-PEN-Val-Dala-boroPro] reads 23.6 nM; that for `CC(C)[C@H](NC(=O)CNC(=O)CNC(=O)CNC(=O)CN1CCN(CC(=O)O)CCN(CC(=O)O)CCN(CC(=O)O)CC1)C(=O)N[C@H](C)C(=O)N1CCC[C@H]1B(O)O` [compound 6834] ({DOTA}-GGGV[dA]-boroPro), 26.8 nM. Take `CC(C)[C@H](NC(=O)CNC(=O)CN1CCN2CCN3CCN(CC1)CC(=O)[O][Ga]([O]C(=O)C2)[O]C(=O)C3)C(=O)N[C@H](C)C(=O)N1CCC[C@H]1B(O)O` [6521GA]: the IC50 worked out at 277 nM.

For the origin of these results see patent US20240207292A1, “BORONIC ACID COMPOUNDS, COMPOSITIONS AND METHODS” (Trustees of Tufts College, priority 2021, published 2024).
